This note sets out measurements from US11766414B2, “Compositions, delivery systems, and methods useful in tumor therapy” (Indi Molecular, Inc., priority 2020, dated 2023).

Positions of bridges follow the written chain, without caps; N, C: chain ends. Non-standard residues stand in square brackets, D forms with d. Residues, ends and D or L forms follow the SMILES beside them. Triazole bridges read from a SMILES are 1,4-linked. *: point of attachment. Biotin = O=C1N[C@H]2[C@H](CS[C@H]2CCCCC(=O)*)N1; Lys(N3) = [N-]=[N+]=NCCCC[C@H](N)C(=O)O; AEEEA = NCCOCCOCCOCC(=O)O; Pra = C#CC[C@H](N)C(=O)O

A short description of one data set: in vivo. The conditions noted are these: female, NSG, mouse, iv, total radioactivity. As to the method: (§1) Water and food were provided ad libitum. […] Tumor growth was monitored by caliper measurements.
CT scans were acquired for anatomical reference. Imaging was performed on a GENISYS^8 microPET/CT small animal scanner.
NSG mice were engrafted with OVCAR3 cells subcutaneously. […] Absorption of the radiotracer by highly perfused organs including the lungs indicate systemic circulation of the compound. Compound clearance is driven at the very early timepoints by a combination of hepatic and renal excretion. Over time, clearance is exclusively renal with retention of the compound in the tumor, and kidney.

The subject of data set [1] is OVCAR3 FOLR1+ cells (PC-3 FOLR1− cells as negative line). The experiment in a line: Flow cytometry binding to FOLR1 (+) and FOLR1 (−) cell lines. In kind it is cell-based, human. The conditions noted are these: for binding selectivity for FOLR1 (+) cells over FOLR1 (−) cells: OVCAR3 vs PC-3, flow cytometry. As to the method:
Both the kyeet (SEQ ID NO:9) and hshta (SEQ ID NO:6)-derived biligands were tested by flow cytometry for binding to FOLR1 (+) and FOLR1 (−) cell lines (FIGS. 6 and 7). The human ovarian adenocarcinoma-derived cell line OVCAR3 has robust FOLR1 expression and was selected as the FOLR1 (+) cell line. The human prostate adenocarcinoma-derived cell line PC-3 was selected as a FOLR1 (−) cell line.
Background: A flow cytometer gives signals particle by particle.

Data set [2] concerns the target T1, FOLR1 (Homo sapiens, UniProt P15328). The experiment in a line: ELISA assay of FOLR1 binding. The conditions noted are these: for EC50: read-out: EC50 (ELISA, FOLR1). An excerpt: FIG. 5 is a diagram of ELISA assay of FOLR1 binding of heterobiligands.
A general note: ELISA stands for enzyme-linked immunosorbent assay.

Data set [3] can be described thus: Maximum tolerated dose (MTD) tolerability study.
Protocol: In order to establish a maximum tolerated dose (MTD), a tolerability study was undertaken testing increasing amounts of the 177-Lu heterobiligand 7327 (folate-hshta-Gly-Phe-Lys(DOTA)). Animals were monitored for signs of toxicity and weighed twice weekly. […] The second and third doses were administered 21 days following the previous dose.
Efforts were undertaken to evaluate 177-Lu 6305 (folate-hshta-Lys(MPBA)-Gly-Phe-Lys(DOTA)), a compound with a brush border cleavable linker in addition to an albumin binder. […] Two separate MTD experiments were undertaken. […] A second experiment interrogated lower doses.
In order to establish a MTD, dose range finding studies were undertaken testing increasing amounts of Indi ^177Lu-7327 in healthy, non-tumor bearing female NSG mice using IV administration (FIGS. 34 and 35). Mouse body weight and behavior were monitored. […] The second and third doses were administered 21 days following the previous dose.
The test system of data set [4] is OVCAR3 xenograft. The data set is described as follows: 177Lu FOLR1 radioligand therapy of OVCAR3 xenografts. In kind it is in vivo, mouse. Here is the method: as §1
OVCAR3 tumor bearing mice were used to study FOLR1-directed radioligand therapy (RLT) for treatment of ovarian cancer. Animals were administered a single dose of heterobiligand (vehicle control) or 111, 37, 18.5, 9.25, or 3.7 MBq [^177Lu]DOTA-labeled heterobiligand. Mice received the dose intravenously (i.v.) via the tail vein. To monitor the effect of the RLT, tumor size measurements were taken twice weekly and body weights were measured.
Single dose treatments at 18.5 MBq/nmol specific activity. OVCAR3 mouse model was used. 10^7 cell tumors were implanted in the mice one month before administration of ^177Lu-#6305. Five mice each were administered Cold #6305, 9.25 MBq Lu177-#6305, and 14.8 MBq Lu177-#6305, and two mice were administered 29.6 MBq Lu177-#6305. Tumor growth and body weight were then monitored.
Female NSG mice were implanted subcutaneously with OVCAR3 cells. Once tumors reached volumes of 200 mm^3, the animals were treated with 177-Lu 7327. Three treatment arms of 9.25 MBq, 14.8 MBq, and 29.6 MBq were studied.

Data set [5] deals with OVCAR3 xenograft. The data set is described as above. It is filed as in vivo, mouse. The source holds these as a separate data set.
Data set [6] addresses T1, FOLR1. The data set is described as follows: Folic acid competition ELISA. In kind it is binding. As to the method:
A competition experiment was conducted to further understand the binding kinetics of the lead heterobiligand (folate-hshta (SEQ ID NO:6) Nterm heterobiligand).

T1 sequence (P15328 25-234): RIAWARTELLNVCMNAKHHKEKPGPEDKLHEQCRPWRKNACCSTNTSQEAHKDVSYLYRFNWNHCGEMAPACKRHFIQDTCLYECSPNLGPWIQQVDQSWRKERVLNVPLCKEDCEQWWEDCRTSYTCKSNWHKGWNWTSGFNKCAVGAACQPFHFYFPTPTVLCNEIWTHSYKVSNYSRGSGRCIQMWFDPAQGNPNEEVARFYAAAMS

Consider `C[C@H](O)[C@H]1NC(=O)[C@@H](Cc2cnc[nH]2)NC(=O)[C@@H](CO)NC(=O)[C@@H](Cc2cnc[nH]2)NC(=O)[C@@H](NC(=O)CC[C@H](NC(=O)c2ccc(NCc3cnc4nc(N)[nH]c(=O)c4n3)cc2)C(=O)O)Cc2cn(nn2)CCCC[C@@H](C(=O)NCCOCCOCCOCC(=O)N[C@@H](CCCCNC(=O)CO/N=C/c2ccc([18F])cc2)C(N)=O)NC(=O)[C@@H](C)NC1=O`, for which the tissue uptake per volume at 4 h in “in vivo” (accumulation in the tumor) was about 4 %ID/mL; in the data set “in vivo” (radiotracer accumulation in the tumor), 3.5 to 5.5 %ID/mL.

Consider `C[C@H](O)[C@H]1NC(=O)[C@@H](Cc2ccc(O)cc2)NC(=O)[C@@H](CCCNC(=N)N)NC(=O)[C@@H](CCC(=O)O)NC(=O)[C@@H](CC(=O)O)NC(=O)[C@@H](NC(=O)[C@H](Cc2cn(CCOCCOCCOCCNC(=O)CC[C@H](NC(=O)c3ccc(NCc4cnc5nc(N)[nH]c(=O)c5n4)cc3)C(=O)O)nn2)NC(=O)CCOCCOCCOCCOCCOCCOCCOCCOCCOCCOCCNC(=O)CCOCCOCCOCCOCCOCCOCCOCCOCCOCCOCCNC(=O)CCCC[C@@H]2SC[C@@H]3NC(=O)N[C@@H]32)Cc2cn(nn2)CCCC[C@@H](C(N)=O)NC1=O` [Folate-deryt], for which, in data set [1], the “binding selectivity for FOLR1 (+) cells over FOLR1 (−) cells” value (“binding selectivity for FOLR1 … (−) cells” below) is “excellent selectivity”. The EC50 – broadly, the concentration at which the effect is half-maximal – at FOLR1 [2] was found to be 0.28 nM.

As to `C[C@H](O)[C@H]1NC(=O)[C@@H](Cc2c[nH]cn2)NC(=O)[C@@H](CO)NC(=O)[C@@H](Cc2c[nH]cn2)NC(=O)[C@@H](NC(=O)[C@H](Cc2cn(CCOCCOCCOCCNC(=O)CC[C@H](NC(=O)c3ccc(NCc4cnc5nc(N)[nH]c(=O)c5n4)cc3)C(=O)O)nn2)NC(=O)CCOCCOCCOCCOCCOCCOCCOCCOCCOCCOCCNC(=O)CCOCCOCCOCCOCCOCCOCCOCCOCCOCCOCCNC(=O)CCCC[C@@H]2SC[C@@H]3NC(=O)N[C@@H]32)Cc2cn(nn2)CCCC[C@@H](C(N)=O)NC(=O)[C@@H](C)NC1=O` [Tz heterobiligand], the “binding selectivity for FOLR1 … (−) cells” value in data set [1] is recorded as “high selectivity”. The EC50 on FOLR1 [2] is 0.107 nM.

In the case of `C[C@H](O)[C@H]1NC(=O)[C@@H](CCC(=O)O)NC(=O)[C@@H](CCC(=O)O)NC(=O)[C@@H](Cc2ccc(O)cc2)NC(=O)[C@@H](CCCCN)NC(=O)[C@@H](NC(=O)[C@H](Cc2cn(CCOCCOCCOCCNC(=O)CC[C@H](NC(=O)c3ccc(NCc4cnc5nc(N)[nH]c(=O)c5n4)cc3)C(=O)O)nn2)NC(=O)CCOCCOCCOCCOCCOCCOCCOCCOCCOCCOCCNC(=O)CCOCCOCCOCCOCCOCCOCCOCCOCCOCCOCCNC(=O)CCCC[C@@H]2SC[C@@H]3NC(=O)N[C@@H]32)Cc2cn(nn2)CCCC[C@@H](C(N)=O)NC1=O` [folate-kyeet heterobiligand], the “binding selectivity for FOLR1 (+) cells” value in data set [1] (40 nM of the test article) is “Virtually complete selectivity”. Also, the “binding selectivity for FOLR1 … (−) cells” value in data set [1] was “high selectivity”. Besides, the EC50 on FOLR1 [2] was 0.149 nM.

Consider `C[C@H](O)[C@H]1NC(=O)[C@@H](Cc2c[nH]cn2)NC(=O)[C@@H](CO)NC(=O)[C@@H](Cc2c[nH]cn2)NC(=O)[C@@H](NC(=O)COCCOCCOCCNC(=O)CCCC[C@@H]2SC[C@@H]3NC(=O)N[C@@H]32)Cc2cn(nn2)CCCC[C@@H](C(N)=O)NC(=O)[C@@H](C)NC1=O` [hshta] ({Biotin-AEEEA}-[Pra][dH][dS][dH][dT][dA][Lys(N3)]-NH2; triazole 1-7), for which the “binding selectivity for FOLR1 … (−) cells” value in data set [1] is on record as “higher selectivity for FOLR1 than kyeet”. Moreover, on FOLR1 [2] (tested alone), the “affinity for recombinant human FOLR protein in ELISA” value is “low micromolar affinity”.

With `C[C@H](O)[C@H]1NC(=O)[C@@H](CCC(=O)O)NC(=O)[C@@H](CCC(=O)O)NC(=O)[C@@H](Cc2ccc(O)cc2)NC(=O)[C@@H](CCCCN)NC(=O)[C@@H](NC(=O)COCCOCCOCCNC(=O)CCCC[C@@H]2SC[C@@H]3NC(=O)N[C@@H]32)Cc2cn(nn2)CCCC[C@@H](C(N)=O)NC1=O` [kyeet] ({Biotin-AEEEA}-[Pra][dK][dY][dE][dE][dT][Lys(N3)]-NH2; triazole 1-7), the “binding selectivity for FOLR1 … (−) cells” value in data set [1] is given as “slight binding selectivity”.

As to “Folate-hshta-G-F-K(^177Lu-DOTA)-OH [^177Lu-#7327]”, the tolerability entry in data set [3] (doses of 111 MBq and 185 MBq) is “not tolerated”; in data set [3] (doses of 111 MBq and 185 MBq, listed as Indi ^177Lu-7327) it was “lost substantial body weight”; in data set [3] (repeated doses of 14.8, 22.2, 29.6, and 37 MBq, 21 days apart) it was “well tolerated”. In addition, the tolerated radioactive doses result in data set [3] (three treatments, healthy non-tumor bearing female NSG mice) is listed as “up to 111 MBq”. The caliper-measured tumor volume result in the data set with OVCAR3 xenograft [4] (29.6 MBq arm, following the second dose) is “stabilized and then fell”. Further, the “time to statistically significant differential between treated and untreated” value with OVCAR3 xenograft [4] (29.6 MBq arm, p≤0.05) turned out to be 12 days post injection. The “loss of body weight” value in the data set on OVCAR3 xenograft [4] (29.6 MBq dose, two doses) is on record as 5-10%. In addition, the “body weights of treated mice” value in the data set with OVCAR3 xenograft [4] ((+/−10%)) was “normal body weights”. Further, the tumor response result in the data set on OVCAR3 xenograft [4] (two treatments at 29.6 MBq followed by a third treatment at 74 MBq) was “Tumor regression”; in the data set with OVCAR3 xenograft [5] (two treatments at 29.6 MBq), “tumor stasis”; with OVCAR3 xenograft [5] (two treatments at 74 MBq), “Tumor stasis”. In the data set with OVCAR3 xenograft [5] (9.25 MBq and 14.8 MBq arms, second dose 21 days after first), the “body weight loss after second dose” value is reported as “minimal”. The “tolerability of first dose” value with OVCAR3 xenograft [5] (9.25 MBq, 14.8 MBq, and 29.6 MBq arms) is “well tolerated”. In addition, in the data set on OVCAR3 xenograft [5] (46.3, 74 and 148 MBq groups), the “tumor sizes after additional treatment on day 24” value is “shrinking tumor sizes”. In the data set with OVCAR3 xenograft [5] (46.3 MBq group, elevated dose), the tumor volumes result is “stable tumor volumes”. Moreover, the “decrease of tumor volumes, on average” value in the data set on OVCAR3 xenograft [5] (74 MBq and 148 MBq arms, single elevated dose at 45 days post injection) was found to be 50%. Besides, the body weight entry in the data set with OVCAR3 xenograft [5] (74 MBq and 148 MBq, elevated dose) is reported as “modest body weight loss”. Moreover, the “time to statistically significant differential between treated and control” value with OVCAR3 xenograft [5] (74 MBq arm) is recorded as 24 days post-injection. Further, in the data set on OVCAR3 xenograft [5] (highest dose (29.6 MBq)), the “body weight after second dose” value is “modest loss of body weight that stabilized and then rebounded”. Besides, the tumor volume result is on record as “decrease in tumor volume” in the data set with OVCAR3 xenograft [5] (two doses at 74 MBq, 21 days apart, vs 0 MBq control); “dose dependent decrease in tumor volume” in the data set with OVCAR3 xenograft [5] (two doses, arms of 9.25, 14.8, and 29.6 MBq). Further, the “outcompeting native folate for receptor binding” value on FOLR1 [6] was “approximately 500 fold”.
